From patent US8546608B2, “Proteasome inhibitors and methods of using the same” (Cephalon, Inc., priority 2003, dated 2013)

Columns and labels:
[1] = molecular target: T1, proteasome in Molt-4 cells (human leukemia) (Homo sapiens, UniProt P20618+P28074); format: cell-based; details: assay of Example E, inhibition of MOLT4; read-out: MOLT4 (EC50)
T1 sequence (P28074 60-263): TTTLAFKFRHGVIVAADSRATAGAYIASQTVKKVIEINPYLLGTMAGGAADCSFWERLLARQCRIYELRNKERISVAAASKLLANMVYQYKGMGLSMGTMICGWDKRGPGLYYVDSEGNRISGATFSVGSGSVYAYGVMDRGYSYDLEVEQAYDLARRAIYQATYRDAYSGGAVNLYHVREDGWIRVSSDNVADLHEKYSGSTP
T1 sequence (P20618 29-241): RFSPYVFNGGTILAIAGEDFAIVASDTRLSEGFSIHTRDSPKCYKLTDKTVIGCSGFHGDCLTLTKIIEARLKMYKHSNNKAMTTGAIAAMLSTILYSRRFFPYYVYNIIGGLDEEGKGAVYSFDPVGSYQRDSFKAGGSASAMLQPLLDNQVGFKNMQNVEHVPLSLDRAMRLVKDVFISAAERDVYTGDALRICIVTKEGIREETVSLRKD
How it was run: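 Intact Molt-4 cells (6×10^6 cells/mL) in HEPES-buffered saline were preincubated with inhibitor 15 min at 37 °C, then given cell-permeable MeOSuc-FLF-AFC at 25 μM final.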

[2] = molecular target: T2, 20S Human Erythrocyte Proteasome (HEP) (Homo sapiens, UniProt P20618+P28074); experiment: Chymotrypsin-like activity of 20S Human Erythrocyte Proteasome (HEP), IC50 determination; format: biochemical; details: assay of Example C, inhibition of HEP
T2 construct: 20S Human Erythrocyte Proteasome (HEP), purchased from Immatics Biotechnologies Inc; purchased Immatics Biotechnologies Inc., Tübingen, Germany; host or cells: human erythrocytes (natural source)
How it was run: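 20S proteasome at 0.2 μg/mL (about 0.6 nM catalytic sites) in 20 mM Tris with 0.04% SDS, preincubated 15 min at 37° C with inhibitor before Suc-LLVY-AMC (100 μM final). AMC fluorescence read in the linear range; triplicates, IC50 from concentration series.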

SMILES: Cc1ccc(F)c(C(=O)N[C@@H](CCCNC(=N)N[N+](=O)[O-])C(=O)N[C@@H](CC(C)C)B(O)O)c1 [E.2.40, Boronic acid, [(1R)-1-[[(2S)-5-[[imino(nitroamino)methyl]amino]-2-[(2-fluoro-5-methylbenzoyl)amino]-1-oxopentyl]amino]-3-methylbutyl]]
- EC50 [1]: 2000 to 10000 nM
- IC50 [2]: < 10 nM

SMILES: CCc1ccc(CCC(=O)N[C@@H](CCCNC(=N)N[N+](=O)[O-])C(=O)N[C@@H](CC(C)C)B2O[C@@H]3C[C@@H]4C[C@@H](C4(C)C)[C@]3(C)O2)cc1 [D.3.191, 3-[4-(Ethyl)phenyl]propanamide, N-[(1S)-1-[[[(1R)-1-[(3aS,4S,6S,7aR)-hexahydro-3a,5,5-trimethyl-4,6-methano-1,3,2-benzodioxaborol-2-yl]-3-methylbutyl]amino]carbonyl]-4-[[imino(nitroamino)methyl]amino]butyl]]
- EC50 [1]: < 200 nM
- IC50 [2]: < 10 nM

SMILES: CC(C)C[C@H](NC(=O)[C@@H](NC(=O)c1ccc2ccccc2c1Br)[C@@H](C)O)B(O)O [E.1.25, Boronic acid, [(1R)-1-[[(2S,3R)-3-hydroxy-2-[(1-Bromo-2-naphthoyl)amino]-1-oxobutyl]amino]-3-methylbutyl]]
- EC50 [1]: < 200 nM
- IC50 [2]: < 10 nM

SMILES: CC(C)C[C@H](NC(=O)[C@H](CCCNC(=N)N[N+](=O)[O-])NC(=O)CCCCCCCCCN1C(=O)c2ccccc2C1=O)B(O)O [E.1.20]
- EC50 [1]: < 200 nM
- IC50 [2]: < 10 nM

SMILES: CCCCc1ccc(C(=O)N[C@@H](CCCNC(N)=O)C(=O)N[C@@H](CC(C)C)B(O)O)cc1 [E.1.30, Boronic acid, [(1R)-1-[[(2S)-2-[(4-butylbenzoyl)amino]-1-oxo-5-ureido-pentyl]amino]-3-methylbutyl]]
- EC50 [1]: 2000 to 10000 nM
- IC50 [2]: < 10 nM

SMILES: Cc1ccc(CCCC(=O)N[C@@H](CCCNC(=N)N[N+](=O)[O-])C(=O)N[C@@H](CC(C)C)B2O[C@@H]3C[C@@H]4C[C@@H](C4(C)C)[C@]3(C)O2)cc1 [D.3.36, 4-(4-methylphenyl)butanamide,N-[(1S)-1-[[[(1R)-1-[(3aS,4S,6S,7aR)-hexahydro-3a,5,5-trimethyl-4,6-methano-1,3,2-benzodioxaborol-2-yl]-3-methylbutyl]amino]carbonyl]-4-[[imino(nitroamino)methyl]amino]butyl]]
- EC50 [1]: < 200 nM
- IC50 [2]: < 10 nM

SMILES: CC(C)C[C@H](NC(=O)[C@H](CCCNC(=N)N[N+](=O)[O-])NC(=O)c1ccc2ccccc2c1)B1O[C@@H]2C[C@@H]3C[C@@H](C3(C)C)[C@]2(C)O1 [D.1.1, Naphthalen-2-carboxamide,N-[(1S)-1-[[[(1R)-1-[(3aS,4S,6S,7aR)-hexahydro-3a,5,5-trimethyl-4,6-methano-1,3,2-benzodioxaborol-2-yl]-3-methylbutyl]amino]carbonyl]-4-[[imino(nitroamino)methyl]amino]butyl]]
- EC50 [1]: < 200 nM
- IC50 [2]: < 10 nM

SMILES: CC(=O)CCCC(=O)N[C@@H](CCCNC(=N)N[N+](=O)[O-])C(=O)N[C@@H](CC(C)C)B(O)O [E.2.80, Boronic acid, [(1R)-1-[[(2S)-5-[[imino(nitroamino)methyl]amino]-2-[(5-oxohexanoyl)amino]-1-oxopentyl]amino]-3-methylbutyl]]
- EC50 [1]: 2000 to 10000 nM
- IC50 [2]: < 100 nM

SMILES: Cc1ccc(CCCC(=O)N[C@@H](CCCNC(=N)N[N+](=O)[O-])C(=O)N[C@@H](CC(C)C)B(O)O)cc1 [D.7.3, Boronic acid, [(1R)-1-[[(2S)-5-[[imino(nitroamino)methyl]amino]-2-[(4-(4-methylphenyl)butanoyl)amino]-1-oxopentyl]amino]-3-methylbutyl]]
- EC50 [1]: 2000 to 10000 nM
- IC50 [2]: < 10 nM

SMILES: COc1ccc2cc([C@H](C)C(=O)N[C@@H](CCCNC(=N)N[N+](=O)[O-])C(=O)N[C@@H](CC(C)C)B(O)O)ccc2c1 [D.7.33, Boronic acid, [(1R)-1-[[(2S)-5-[[imino(nitroamino)methyl]amino]-2-[[(2S)-2-(6-methoxynaphthalen-2-yl)-propanoyl]amino]-1-oxopentyl]amino]-3-methylbutyl]]
- EC50 [1]: 2000 to 10000 nM
- IC50 [2]: < 10 nM

SMILES: CCCCCCCCCC(=O)N[C@@H](CC(N)=O)C(=O)N[C@@H](CC(C)C)B(O)O [E.1.27, Boronic acid, [(1R)-1-[[(2S)-3-carbamoyl-2-[(decanoyl)amino]-1-oxopropyl]amino]-3-methylbutyl]]
- EC50 [1]: < 200 nM
- IC50 [2]: < 10 nM

SMILES: CCCCOCC(=O)N[C@@H](CCCNC(=N)N[N+](=O)[O-])C(=O)N[C@@H](CC(C)C)B1O[C@@H]2C[C@@H]3C[C@@H](C3(C)C)[C@]2(C)O1 [D.2.3, 2-Butoxyacetamide,N-[(1S)-1-[[[(1R)-1-[(3aS,4S,6S,7aR)-hexahydro-3a,5,5-trimethyl-4,6-methano-1,3,2-benzodioxaborol-2-yl]-3-methylbutyl]amino]carbonyl]-4-[[imino(nitroamino)methyl]amino]butyl]]
- EC50 [1]: < 200 nM
- IC50 [2]: < 10 nM

SMILES: CC(C)C[C@H](NC(=O)[C@H](CCCNC(=N)N[N+](=O)[O-])NC(=O)CCc1ccc(C(C)C)cc1)B1O[C@@H]2C[C@@H]3C[C@@H](C3(C)C)[C@]2(C)O1 [D.3.190, 3-[4-(2-Propyl)phenyl]propanamide, N-[(1S)-1-[[[(1R)-1-[(3aS,4S,6S,7aR)-hexahydro-3a,5,5-trimethyl-4,6-methano-1,3,2-benzodioxaborol-2-yl]-3-methylbutyl]amino]carbonyl]-4-[[imino(nitroamino)methyl]amino]butyl]]
- EC50 [1]: < 200 nM
- IC50 [2]: < 10 nM

SMILES: COCCOCCOCC(=O)N[C@@H](CCCNC(=N)N[N+](=O)[O-])C(=O)N[C@@H](CC(C)C)B1O[C@@H]2C[C@@H]3C[C@@H](C3(C)C)[C@]2(C)O1 [D.1.7]
- EC50 [1]: 2000 to 10000 nM
- IC50 [2]: < 100 nM

SMILES: CC(C)CC(=O)N[C@@H](CCCNC(=N)N[N+](=O)[O-])C(=O)N[C@@H](CC(C)C)B(O)O [E.2.31, Boronic acid, [(1R)-1-[[(2S)-5-[[imino(nitroamino)methyl]amino]-2-[(3-methylbutanoyl)amino]-1-oxopentyl]amino]-3-methylbutyl]]
- EC50 [1]: > 10000 nM
- IC50 [2]: < 10 nM

SMILES: CC(C)C[C@H](NC(=O)[C@H](CCCNC(=N)N[N+](=O)[O-])NC(=O)CCCCCCCCCCC#N)B(O)O [D.7.60, Boronic acid, [(1R)-1-[[(2S)-5-[[imino(nitroamino)methyl]amino]-2-[(11-cianoundecanoyl)amino]-1-oxopentyl]amino]-3-methylbutyl]]
- EC50 [1]: 2000 to 10000 nM
- IC50 [2]: < 10 nM

SMILES: CC(C)CCCC(=O)N[C@@H](CCCNC(=N)N[N+](=O)[O-])C(=O)N[C@@H](CC(C)C)B1O[C@@H]2C[C@@H]3C[C@@H](C3(C)C)[C@]2(C)O1 [D.3.38]
- EC50 [1]: < 200 nM
- IC50 [2]: < 10 nM

SMILES: CC(C)C[C@H](NC(=O)[C@H](CCCNC(=N)N[N+](=O)[O-])NC(=O)CSCc1ccccc1)B(O)O [E.2.49, Boronic acid, [(1R)-1-[[(2S)-5-[[imino(nitroamino)methyl]amino]-2-[[2-[(phenylmethyl)sulfanyl]acetyl]amino]-1-oxopentyl]amino]-3-methylbutyl]]
- EC50 [1]: > 10000 nM
- IC50 [2]: < 10 nM

SMILES: CC(C)C[C@H](NC(=O)[C@H](CCCNC(=N)N[N+](=O)[O-])NC(=O)CCCCC1CCCCC1)B1O[C@@H]2C[C@@H]3C[C@@H](C3(C)C)[C@]2(C)O1 [D.3.73]
- EC50 [1]: < 200 nM
- IC50 [2]: < 10 nM
